# In patent publication US12350270B2, “Antimalarial agents” (Merck Sharp & Dohme LLC, priority 2019, dated 2025):
# Tested on: parasites (ring stage, in human red blood cell culture)
# Experiment: Parasite LDH growth assay (antiparasite potency, Parasite Assay)
# Type: cell-based, Plasmodium falciparum
# Settings: 0.7% rings, 2% haematocrit, 72 hours at 37° C., LDH readout of parasite growth
# In short: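 Growth was read by an LDH assay after a freeze–thaw cycle (−80 °C overnight, 4 h thaw at RT). Before that, parasites grew with compound for 72 h at 37 °C under gassed, humidified conditions. The input was a ring-stage culture adjusted to 0.7% parasitemia and 2% haematocrit in serum (5%)/albumax (0.5%)-supplemented RPMI-Hepes.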
row,Compound,EC50 [nM]
1,"CCC1(CC)CC(=O)N([C@H]2c3cc(C(=O)NC4c5ccccc5CC4(C)O)ccc3OC2(C)COC)C(=N)N1 (stereo partly drawn) [Example 76A, (2S,3S)-3-(4,4-diethyl-2-imino-6-oxotetrahydropyrimidin-1(2H)-yl)-N-(2-hydroxy-2-methyl-2,3-dihydro-1H-inden-1-yl)-2-(methoxymethyl)-2-methyl-2,3-dihydrobenzofuran-5-carboxamide]",8.5
2,"CCC1(CC)CC(=O)N([C@H]2c3cc(C(=O)NC4c5ccccc5CC4(C)O)ccc3OC2(C)COC)C(=N)N1 (stereo partly drawn) [Example 76B, (2S,3S)-3-(4,4-diethyl-2-imino-6-oxotetrahydropyrimidin-1(2H)-yl)-N-(2-hydroxy-2-methyl-2,3-dihydro-1H-inden-1-yl)-2-(methoxymethyl)-2-methyl-2,3-dihydrobenzofuran-5-carboxamide]",1.1
3,"CCC1(CC)CC(=O)N([C@H]2c3cc(C(=O)NC4c5ccccc5CC4(C)O)ccc3OC2(C)COC)C(=N)N1 (stereo partly drawn) [Example 77A, (2S,3S)-3-(4,4-diethyl-2-imino-6-oxotetrahydropyrimidin-1(2H)-yl)-N-(2-hydroxy-2-methyl-2,3-dihydro-1H-inden-1-yl)-2-(methoxymethyl)-2-methyl-2,3-dihydrobenzofuran-5-carboxamide]",57.1
4,"CCC1(CC)CC(=O)N([C@H]2c3cc(C(=O)NC4c5ccccc5CC4(C)O)ccc3OC2(C)COC)C(=N)N1 (stereo partly drawn) [Example 77B, (2S,3S)-3-(4,4-diethyl-2-imino-6-oxotetrahydropyrimidin-1(2H)-yl)-N-(2-hydroxy-2-methyl-2,3-dihydro-1H-inden-1-yl)-2-(methoxymethyl)-2-methyl-2,3-dihydrobenzofuran-5-carboxamide]",21.4

# Same assay, conditions: Plasmodium falciparum, Erythrocyte, 72 h, 0.7% rings, 2% haematocrit, 72 hours at 37° C., LDH readout of parasite growth
row,Compound,EC50 [nM]
1,"CCC1(CC)CC(=O)N([C@H]2c3cc(C(=O)N[C@@H]4c5ccccc5C[C@H]4O)ccc3O[C@@]2(C)COC)C(=N)N1 [Example 75A, (2R,3S)-3-(4,4-diethyl-2-imino-6-oxotetrahydropyrimidin-1(2H)-yl)-N-((1R,2R)-2-hydroxy-2,3-dihydro-1H-inden-1-yl)-2-(methoxymethyl)-2-methyl-2,3-dihydrobenzofuran-5-carboxamide]",0.4
2,"CCC1(CC)CC(=O)N([C@H]2c3cc(C(=O)N[C@@H]4c5ccccc5C[C@H]4O)ccc3O[C@]2(C)COC)C(=N)N1 [Example 75B, (2S,3S)-3-(4,4-diethyl-2-imino-6-oxotetrahydropyrimidin-1(2H)-yl)-N-((1R,2R)-2-hydroxy-2,3-dihydro-1H-inden-1-yl)-2-(methoxymethyl)-2-methyl-2,3-dihydrobenzofuran-5-carboxamide]",9.5
3,"CC1(C)CC(=O)N([C@@H]2CCc3ccc(C(=O)N[C@@H]4c5ccccc5C[C@H]4O)cc32)C(=N)N1 [Example 78, (3R)-N-[(1R,2R)-2-hydroxyindan-1-yl]-3-(2-imino-4,4-dimethyl-6-oxo-hexahydropyrimidin-1-yl)indane-5-carboxamide]",8.9
4,"CC1(C)CC(=O)N([C@@H]2CCc3ccc(C(=O)N[C@@H]4c5ccccc5C[C@]4(C)O)cc32)C(=N)N1 [Example 79, (3R)-N-[(1R,2S)-2-hydroxy-2-methyl-indan-1-yl]-3-(2-imino-4,4-dimethyl-6-oxo-hexahydropyrimidin-1-yl)indane-5-carboxamide]",9.6
5,"CC1(C)CC(=O)N([C@@H]2CCc3ccc(C(=O)N[C@@H]4c5ccccc5C[C@@]4(C)O)cc32)C(=N)N1 [Example 80, (3R)-N-[(1R,2R)-2-hydroxy-2-methyl-indan-1-yl]-3-(2-imino-4,4-dimethyl-6-oxo-hexahydropyrimidin-1-yl)indane-5-carboxamide]",18
6,"CC[C@]1(C)CC(=O)N([C@@H]2CCc3ccc(C(=O)N[C@@H]4c5ccccc5C[C@H]4O)cc32)C(=N)N1 [Example 81, (3R)-3-[(4R)-4-ethyl-2-imino-4-methyl-6-oxo-hexahydropyrimidin-1-yl]-N-[(1R,2R)-2-hydroxyindan-1-yl]indane-5-carboxamide]",6.6
7,"C[C@@H]1C[C@@H](N2C(=N)NC(C)(C)CC2=O)c2cc(C(=O)N[C@@H]3c4ccccc4C[C@H]3O)ccc21 [Example 82, (1R,3R)-N-[(1R,2R)-2-hydroxyindan-1-yl]-3-(2-imino-4,4-dimethyl-6-oxo-hexahydropyrimidin-1-yl)-1-methyl-indane-5-carboxamide]",15.5
8,"CCC1(CC)CC(=O)N([C@@H]2Cc3ccc(C(=O)N[C@@H]4c5ccccc5C[C@H]4O)cc32)C(=N)N1 [Example 83, (8R)-8-(4,4-diethyl-2-imino-6-oxo-hexahydropyrimidin-1-yl)-N-[(1R,2R)-2-hydroxyindan-1-yl]bicyclo[4.2.0]octa-1(6),2,4-triene-3-carboxamide]",20
9,"CC1(C)CC(=O)N([C@@H]2CCc3ccc(C(=O)N[C@H]4CC(C)(C)Oc5ccccc54)cc32)C(=N)N1 [Example 84, (3R)-N-[(4S)-2,2-dimethylchroman-4-yl]-3-(2-imino-4,4-dimethyl-6-oxo-hexahydropyrimidin-1-yl)indane-5-carboxamide]",0.9
10,"CCC1(CC)CC(=O)N([C@@H]2CCc3ccc(C(=O)N[C@@H]4c5ccccc5C[C@H]4O)cc32)C(=N)N1 [Example 85, (3R)-3-(4,4-diethyl-2-imino-6-oxo-hexahydropyrimidin-1-yl)-N-[(1R,2R)-2-hydroxyindan-1-yl]indane-5-carboxamide]",10.7
11,"CC1(C)CC(=O)N(C2CC(C)(C)c3ccc(C(=O)N[C@@H]4c5ccccc5C[C@H]4O)cc32)C(=N)N1 (stereo partly drawn) [Example 86, N-[(1R,2R)-2-hydroxyindan-1-yl]-3-(2-imino-4,4-dimethyl-6-oxo-hexahydropyrimidin-1-yl)-1,1-dimethyl-indane-5-carboxamide]",87.8
12,"CC1(C)CC(=O)N([C@H]2c3cc(C(=O)N[C@@H]4c5ccccc5C[C@H]4O)ccc3CC2(C)C)C(=N)N1 [Example 87, N-[(1R,2R)-2-hydroxyindan-1-yl]-3-(2-imino-4,4-dimethyl-6-oxo-hexahydropyrimidin-1-yl)-2,2-dimethyl-indane-5-carboxamide]",105
13,"CC[C@]1(C)CC(=O)N([C@@H]2C[C@@H](C)c3ccc(C(=O)N[C@@H]4c5ccccc5C[C@H]4O)cc32)C(=N)N1 [Example 88, (1R,3R)-3-[(4R)-4-ethyl-2-imino-4-methyl-6-oxo-hexahydropyrimidin-1-yl]-N-[(1R,2R)-2-hydroxyindan-1-yl]-1-methyl-indane-5-carboxamide]",3.4
14,"C[C@@H]1C[C@@H](N2C(=N)NC(C)(C)CC2=O)c2cc(C(=O)N[C@@H]3c4ccccc4C[C@@]3(C)O)ccc21 [Example 89, (1R,3R)-N-[(1R,2R)-2-hydroxy-2-methyl-indan-1-yl]-3-(2-imino-4,4-dimethyl-6-oxo-hexahydropyrimidin-1-yl)-1-methyl-indane-5-carboxamide]",43.5
15,"C[C@@H]1C[C@@H](N2C(=N)NC(C)(C)CC2=O)c2cc(C(=O)N[C@@H]3c4ccccc4C[C@]3(C)O)ccc21 [Example 90, (1R,3R)-N-[(1R,2S)-2-hydroxy-2-methyl-indan-1-yl]-3-(2-imino-4,4-dimethyl-6-oxo-hexahydropyrimidin-1-yl)-1-methyl-indane-5-carboxamide]",26.8
16,"CC1(C)CC(=O)N(C2c3cc(C(=O)N[C@@H]4c5ccccc5C[C@H]4O)ccc3OC2(C)C)C(=N)N1 (stereo partly drawn) [Example 91, N-[(1R,2R)-2-hydroxyindan-1-yl]-3-(2-imino-4,4-dimethyl-6-oxo-hexahydropyrimidin-1-yl)-2,2-dimethyl-3H-benzofuran-5-carboxamide]",45.2
